Source: patent EP0264914A2, “Process for producing L-phenylalanine” (KYOWA HAKKO KOGYO CO., LTD., priority 1986, dated 1988)
Where two headings read alike, the source gives them in different places.

How the values were obtained:
CM = CM (Escherichia coli, UniProt P0A9J8); assay: CM activity with phenylalanine added to the reaction solution; assay type: biochemical; conditions: 100 mM phenylalanine; for activity at 100000 µM: read-out: CM activity, expressed as percentage of that without addition of phenylalanine
Description: (§1) DS, CM and PD activities of Corynebacterium glutamicum ATCC 39019 and transformants containing pEaroG-pheA3 were determined. Determination of DS activity was done according to the method of P.R. Sprinavasan, D.B. Sprinson, et al. [J. Biol. Chem., 234, 716 (1959)] and determination of CM and PD activities was done according to the method of R.G.H. Cotton and F. Gibson [Biochem. Biophys. Acta, 100, 76 (1965)].
(§2) Furthermore, DS, CM and PD activities of the transformants carrying pEaroG-pheA1, pEaroG-pheA2 or pEaroG-pheA3, were determined when 100 mM phenylalanine was added to the reaction solutions. Their activities shown in Table 2 are expressed as percentages of those without addition of phenylalanine.

DS = DS (Escherichia coli, UniProt P0AB91); assay: DS activity with phenylalanine added to the reaction solution; assay type: biochemical; conditions: 100 mM phenylalanine
Description: as §1, §2

PD = PD (Escherichia coli, UniProt P0A9J8); assay: PD activity with phenylalanine added to the reaction solution; assay type: biochemical; conditions: 100 mM phenylalanine; for activity at 100000 µM: read-out: PD activity, expressed as percentage of that without addition of phenylalanine
Description: as §1, §2

[1] = tested on: Escherichia coli AB3248 strain carrying pAROG1; assay: Growth on M9 plate medium containing phenylalanine; assay type: cell-based; conditions: M9 plate medium containing 500 µg/mℓ phenylalanine
Description: Then, 50 µℓ of the ligase reaction mixture was added to 0.2 mℓ of a suspension containing competent cells at a concentration of about 10⁹ cells/mℓ and the mixture was left standing on ice for 10 minutes. Then, the mixture was heated at 37°C for 5 minutes and admixed with 2 mℓ of LB medium. Then, the mixture was left standing at 37°C for 90-120 minutes. Then, the cells were centrifugally washed twice with physiological saline solution and spread onto M9 plate medium (medium comprising 2 g of glucose, 1 g of NH₄Cl, 6 g of Na₂HPO₄, 3 g of KH₂PO₄, 0.1 g of MgSO₄·7H₂O, 15 mg of CaCl₂·2H₂O, 4 mg of thiamine hydrochloride and 15 g of agar in 1 ℓ of water, adjusted to pH 7.2), containing […] each of histidine, proline, arginine, isoleucine and valine. Colonies grown on M9 plate medium were spread onto LB plate medium (LB medium containing 1.6% agar, pH 7.0) containing 100 µg/mℓ ampicillin and LB plate medium containing 20 µg/mℓ tetracycline, and transformants grown on the ampicillin-containing medium and failing to grow on the tetracycline-containing medium were selected.
Furthermore, the HindIII-SalI-cleaved DNA fragment had the same restriction enzyme cleavage sites as those of aroG gene, as reported by W.D. Davies, et al. [Nucl. Acids Res., 10, 4045 (1982)] […]

[2] = Corynebacterium glutamicum ATCC 39019/pEaroG-pheA1
[3] = Corynebacterium glutamicum ATCC 39019/pEaroG-pheA2
[4] = Corynebacterium glutamicum ATCC 39019/pEaroG-pheA3

Chain of PD (P0A9J8 whole entry): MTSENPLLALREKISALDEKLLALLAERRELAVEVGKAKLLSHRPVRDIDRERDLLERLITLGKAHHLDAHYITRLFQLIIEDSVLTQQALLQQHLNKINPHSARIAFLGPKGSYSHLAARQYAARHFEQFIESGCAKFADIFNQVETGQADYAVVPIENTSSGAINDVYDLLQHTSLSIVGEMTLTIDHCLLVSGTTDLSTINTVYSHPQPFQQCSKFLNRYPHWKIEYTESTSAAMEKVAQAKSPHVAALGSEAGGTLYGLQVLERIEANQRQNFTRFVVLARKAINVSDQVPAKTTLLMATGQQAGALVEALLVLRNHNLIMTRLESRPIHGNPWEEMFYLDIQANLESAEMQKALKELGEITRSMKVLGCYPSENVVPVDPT
Chain of CM (P0A9J8 whole entry): as above
Chain of DS (P0AB91 whole entry): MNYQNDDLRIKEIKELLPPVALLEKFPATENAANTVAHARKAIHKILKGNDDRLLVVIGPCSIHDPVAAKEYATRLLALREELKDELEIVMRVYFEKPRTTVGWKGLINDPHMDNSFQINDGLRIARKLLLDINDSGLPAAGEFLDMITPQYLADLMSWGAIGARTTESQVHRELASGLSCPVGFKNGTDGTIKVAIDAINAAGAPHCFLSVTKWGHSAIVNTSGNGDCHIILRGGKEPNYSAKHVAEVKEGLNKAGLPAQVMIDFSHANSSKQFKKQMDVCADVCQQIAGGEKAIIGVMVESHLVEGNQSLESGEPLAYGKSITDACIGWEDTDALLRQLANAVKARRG

N[C@@H](Cc1ccccc1)C(=O)O [phenylalanine]
activity at 100000 µM (CM; [2]): 61%
activity at 100000 µM (CM; [3]): 66%
CM activity, expressed as percentage of that without addition of phenylalanine (CM; [4]): 89 percentages
activity at 100000 µM (DS; Corynebacterium glutamicum ATCC 39019/pEaroG-pheA1, read-out: DS activity, expressed as percentage of that without addition of phenylalanine): 12%
DS activity, expressed as percentage of that without addition of phenylalanine (DS; [3]): 74 percentages
DS activity, expressed as percentage of that without addition of phenylalanine (DS; [4]): 74 percentages
activity at 100000 µM (PD; [2]): 5%
activity at 100000 µM (PD; [3]): 7%
PD activity, expressed as percentage of that without addition of phenylalanine (PD; [4]): 81 percentages
growth of Escherichia coli AB3248 strain carrying pAROG1 [1]: completely inhibited
